Experimental findings from publication PMC12525867, “Aromaticity Tuning in Biaryl Monophosphines and Their Derivatives” (Molecules, 2025) are described below.

The MBC is the lowest tested concentration that kills the bacteria rather than only halting them. The MIC is the lowest concentration found to suppress growth. What is called CC50 is the concentration giving 50% cytotoxicity.

In data set [1] the test system is M. luteus ATCC 10240. The data set can be described thus: Antibacterial screening, broth microdilution (MIC/MBC). Format: cell-based, Micrococcus luteus. As to conditions: Micrococcus luteus, ATCC10240; M. luteus ATCC 10240; read-out: MBC. The protocol:
(§1) The antimicrobial activities of a series of compounds 1–5 were tested through the utilization of seven reference species, encompassing both Gram-positive (Staphylococcus aureus ATCC 29213, Staphylococcus epidermidis ATCC 12228, Micrococcus luteus ATCC 10240) and Gram-negative (Escherichia coli ATCC 25922, Klebsiella pneumoniae ATCC 13883, Proteus mirabilis ATCC 12453, Acinetobacter baumannii ATCC 19606) bacteria as model microorganisms. For this purpose, microbial suspensions were prepared in sterile saline (0.85% NaCl) with an optical density of 0.5 McFarland standard, yielding a concentration of 150 × 10^6 CFU/mL (CFU, colony-forming units). All of the stock solutions of the tested compounds were dissolved in DMSO. Amoxicillin (Glentham Life Sciences Ltd., Corsham, UK) was used as a positive control.
(§2) The MIC values of the tested compounds were determined by serial twofold dilutions of 1–5 in Mueller Hinton Broth (MHB, Biomaxima, Lublin, Poland). The range of final 1–5 concentrations used was from 0.49 up to 1000 μg/mL, and for amoxicillin from 0.12 up to 250 μg/mL in the 96-well microtiter plates (Medlab, Raszyn, Poland), starting with 98 μL MHB and 2 μL bacterial inoculum added to each well. Positive controls consisted of 100 μL MHB in each well with the tested compounds at the same concentration range. The negative controls consisted of 100 μL of MHB only. Each set of tests and controls was established with three replicates. The microtiter plates were then subjected to an incubation period of 24 h at a temperature of 35 ± 2 °C. After incubation, the optical density of the microbial growth was measured at a wavelength of 600 nm using a microplate reader, the Biotek Elx800 (BioTek Instruments, Inc., Winooski, VT, USA). The MIC value was defined as the lowest concentration of the tested compound at which there was no visible growth of the tested microorganisms. The determination of the MIC values was achieved by employing the broth microdilution method, in accordance with the recommendations of the European Committee on Antimicrobial Susceptibility Testing (EUCAST). […] Then, the MHA plates were incubated overnight at 35 ± 2 °C. […] The MIC and MBC values were reported in μg/mL, according to the EUCAST reference.
A general note: In broth dilution the organism is exposed to a series of concentrations in liquid medium.

The test system of data set [2] is K. pneumoniae ATCC 13883. The description is as above. Particulars: Klebsiella pneumoniae, ATCC13883; K. pneumoniae ATCC 13883, MHB, 24 h, 35 °C; read-out: MIC. Format: cell-based, Klebsiella pneumoniae. The method, then: as §1, §2
Data set [3] relates to E. coli ATCC 25922. The description is as above. Format: cell-based, Escherichia coli. Particulars: Escherichia coli, ATCC25922; for MIC: E. coli ATCC 25922, MHB, 24 h, 35 °C, read-out: MIC. The protocol:
as §1, §2

Data set [4] is described as follows: Cytotoxicity, microculture tetrazolium (MTT) test, H1HeLa. Format: cell-based. As to conditions: human, H1HeLa cells (cervical adenocarcinoma, ATCC CRL-1958); H1HeLa (cervical adenocarcinoma), 24 h incubation, MTT; ± SD. The protocol: The cytotoxicity of biaryl monophosphines was tested in vitro in normal (VERO) and cancer-derived (H1HeLa) cells after 24 h of incubation using a microculture tetrazolium test. Table 2 presents the CC50 (concentrations decreasing the cellular viability by 50%) values calculated from dose–response cytotoxicity curves (Figure 4).
Cytotoxicity was evaluated using a microculture tetrazolium test as previously described, and details can be found in the Supplementary Materials. The cell lines used in the presented study were acquired from the American Type Culture Collection (ATCC); the one used for cytotoxicity testing included non-cancerous VERO (kidney; ATCC CCL-81) cells and cancer-originating H1HeLa (cervical adenocarcinoma; ATCC CRL-1958) cells. VERO cells were cultured in Dulbecco’s Modified Eagle’s Medium (DMEM; Corning, Tewksbury, MA, USA), while Eagle’s Minimum Essential Medium (MEM; Corning) was used for H1HeLa. Antibiotics (penicillin–streptomycin solution, Corning) and fetal bovine serum (FBS, Corning) were added to cell media. Cells were incubated in a 5% CO2 atmosphere at 37 °C (CO2 incubator, Panasonic Healthcare Co., Tokyo, Japan). Briefly, the monolayers of VERO or H1HeLa cells in 96-well plates (Falcon, Corning) were treated with serial dilutions of selected compounds for 24 h. After this, the medium was removed, the plates were washed with phosphate buffered saline (PBS; Corning), a 10% solution of (3-(4,5-dimethylthiazol-2-yl)-2,5-diphenyltetrazolium bromide (MTT; Sigma-Aldrich, St. Louis, MO, USA) (5 mg/mL) in FBS-free cell media was added, and the incubation continued for the next 4 h. Subsequently, the precipitated formazan crystals were dissolved, and after overnight incubation at 37 °C, the Synergy H1 Multi-Mode Microplate Reader (BioTek Instruments, Inc., Winooski, VT, USA) with Gen5 software (ver. 3.09.07; BioTek Instruments, Inc.) was used for absorbance acquisition (540 and 620 nm). Data was exported to GraphPad Prism (ver. 10) to calculate the CC50 values (50% cytotoxic concentration) from dose–response curves.
Aromaticity Tuning in Biaryl Monophosphines and Their Derivatives […]
Cell line maintenance and in vitro experiments
The cytotoxicity of selected biaryl monophosphines was evaluated in vitro towards normal VERO (ATCC, CCL-81) cells and cancer-derived cell line H1HeLa (cervical adenocarcinoma; ATCC (American Type Culture Collection) CRL-1958) using 3-(4,5-dimethylthiazol-2-yl)-2,5-diphenylte-trazolium bromide (MTT) based protocol.
Media used for in vitro culturing included Dulbecco's Modified Eagle's Medium (DMEM, Corning, Tewksbury, MA, USA) used for VERO cells and Modified Eagle Medium (MEM, Corning) used for H1HeLa. Cell media used in the experiments were supplemented with antibiotics (Penicil-lin-Streptomycin Solution, Corning) and fetal bovine serum (FBS, Corning) – 10% (cell passaging) and 2% (cell maintenance and experiments). Phosphate-buffered saline (PBS) and trypsin were bought from Corning, whereas MTT (3-(4,5-dimethylthiazol-2-yl)-2,5-diphenyltetrazolium bromide) from Sigma (Sigma-Aldrich, St. Louis, MO, USA). SDS was purchased from PanReac Applichem (Darmstadt, Germany). Incubation was carried out in a 5% CO2 atmosphere at 37°C (CO2 incubator, Panasonic Healthcare Co., Tokyo, Japan).
Concentrations of cells for passaging were as follows: VERO – 1.5*10^5 cells/mL, H1HeLa – 2*10^5 cells/mL. Routine observations of cell cultures and experiments were carried out using an in-verted microscope (CKX41, Olympus Corporation, Tokyo, Japan) equipped with a ca mera (Moti-cam 3+, Motic, Hong Kong), and the results were recorded (Motic Images Plus 2.0, Motic).
Stock solutions of biaryl monophosphines were prepared by dissolving the samples in cell culture grade DMSO (PanReac Applichem).
Evaluation of cytotoxicity
Cytotoxicity was tested using an MTT-based protocol. The cells were passaged into 96-well plates (Falcon, TC-treated, Corning) and, after overnight incubation, treated with serial dilutions of […]

In brackets after ≈: the same amount, converted by molar mass.

Consider `COc1cc(OC)c(-c2c(P(=O)(C3CCCCC3)C3CCCCC3)c(OC)c3ccccc3c2OC)c(OC)c1` [Compound 1, Dicyclohexyl[1,4-dimethoxy-3-(2,4,6-trimethoxyphenyl)naphthalen-2-yl]phosphane oxide], for which, in data set [1], the MBC is 125 µg/mL (≈ 221 µM). The MIC is > 1000 µg/mL in data set [2] and 500 to 1000 µg/mL (≈ 882 to 1760 µM) in data set [3]. Besides, the CC50 at 24 h in data set [4] stood at 6.78 ± 0.27 µg/mL.
As for `COc1ccccc1-c1c(P(=O)(C2CCCCC2)C2CCCCC2)c(OC)c2ccccc2c1OC` [Compound 2, Dicyclohexyl[1,4-dimethoxy-3-(2-methoxyphenyl)naphthalen-2-yl]phosphane oxide], the MBC in data set [1] is > 1000 µg/mL. The MIC in data set [2] and in data set [3] was > 1000 µg/mL throughout. For the same compound, the CC50 at 24 h in data set [4] amounted to 5.92 ± 0.4 µg/mL.
With `COc1cc(OC)c(-c2c(P(=O)(C3CCCCC3)C3CCCCC3)c(O)c3ccccc3c2OC)c(OC)c1` [Compound 3, 2-(Dicyclohexylphosphoryl)-4-methoxy-3-(2,4,6-trimethoxyphenyl)naphthalen-1-ol], the MBC in data set [1] and in data set [3] (E. coli ATCC 25922) was > 1000 µg/mL throughout. Moreover, the MIC in data set [2] was 500 µg/mL (≈ 905 µM); in data set [3] it was 250 to 500 µg/mL (≈ 452 to 905 µM). Further, the CC50 at 24 h in data set [4] was 3.83 ± 0.33 µg/mL.
